Columns and labels:
[1] = tested on: BAF3-bcl2 B14 cells; experiment: Apoptosis induction (DNA fragmentation) in BAF3-bcl2 clone B14, 24 h; format: cell-based, mouse
Procedure: (§1) The BAF3-bcl2 cells correspond to BAF3 cells (mouse lymphocyte cells) tranfected with the bcl2 gene. Among these cells, four lines known as H16, G18, B14 and G21 overexpress the bcl2 gene.
(§2) Whereas the BAF3-b0 cells undergo apoptosis (more than 80% of the cells) in the absence of interleukin 3 (IL3) in 16 hours [according to Collins, M. K. L., Marvel, J., Malde, P. & Lopez-Rivas, A., J. Exp. Med. 176, 1043-1051, (1992)], the BAF3-bcl2 cells show no sign of apoptosis in the absence of IL3. They are thus apoptosis-resistant.
(§3) The procedure which was used is as follows: • The BAF3-b0 or BAF3-bcl2 cells, cultured in the presence of IL3, were labelled by a method adapted from that disclosed in Wright, S. et al., J. of Cell. Biochem. 48, 344-355, (1992).
(§4) 10^5 cells/ml were incubated with 4.62 KBq.ml^−1 [^3H]-thymidine for 40 hours at 37° C. After two washes with culture medium, 2.5×10^6 cells were cultured in the presence of the test compound.
(§5) After incubating for 24 hours, these cells were recovered by centrifugation at 400×g for 5 minutes and washed 3 times with PBS buffer. The cells recovered in the pellet were lysed in 2 ml of 0.1% Triton X-100, 20 mM EDTA, 5 mM Tris pH 8 and centrifuged at 30 000×g at 4° C. for 30 minutes.
(§6) The supernatants were recovered and the pellets dissolved in 0.3 ml of 0.5N NaOH.
(§7) Aliquots of the culture medium (1 ml), of the supernatant (0.3 ml) and of the dissolved pellet (0.1 ml) were assayed in a scintillation counter.
(§8) The percentage of DNA fragments is calculated in the following way:
(§9) The percentage of fragmentation of the DNA is a direct measure of the apoptosis which the cells have undergone.

[2] = tested on: B16 cells; experiment: Growth of B16 cells (protein and DNA assay); format: cell-based, mouse; details: 50% inhibition of growth
Procedure: (§10) The cells used correspond to various cell lines: human lung normal embryonic fibroblasts (MRC5), mouse melanoma cells (B16), mouse lymphocytic leukaemia cells (L1210) and L1210T cells obtained by infecting L1210 cells with a retroviral vector bearing human ALDH1 cDNA.
(§11) The procedure used for the tests on the B16 and MRC5 cells is as follows: • The test compounds are added 4 hours after placing the cells in the wells. After 72 hours, the cells are removed at different times. The B16 and MRC5 cells are washed twice with PBS and recovered directly with 0.1M sodium chloride.
(§12) The effect on the growth of the B16 and MRC5 cells is measured by protein assay according to the Lowry method (Lowry, O. H., Rosenbrough, N. J., Farr, A. L. and Randall, J. Biol. Chem. 193, 265-275, (1951)) and DNA assay by the Hoechst method (West, D. C., Sattar, A. and Kumar, S., Anal. Biochem. 147, 289-295, (1985)).
(§13) The IC50 concentration is the concentration corresponding to a 50% inhibition of growth of the cells.

[3] = tested on: ALDH1; experiment: Effect on the activity of ALDH1 after preincubation; format: biochemical, baker's yeast; details: 400 μM
Procedure: The procedure used is given below: 260 mU of ALDH from baker's yeast are preincubated at 37 or 0° C. in a mixture of 1 mM EDTA, 100 mM KCl, in 60 mM of sodium phosphate buffer pH 6 in a final volume of 200 μl.
To each tube containing the 200 μl of mixture, the test compound is added to a concentration of 400 μM, with the exception of a control series which contains no test compound.
The incubation carried out at 0° C. or at 37° C. is stopped by adding 100 μg of BSA (bovine serum albumin) and acetone at −20° C. to a final concentration of 80% in order to precipitate the proteins (ALDH and BSA). The tubes are left at −20° C. for 1 hour and then centrifuged at 10 000 rpm for 10 minutes and washed with 80% acetone. […]
The reaction is started by adding 2 mM of propanal and the optical density (OD) is measured at 340 nm at T=0 and at T=5, 10, 20 and 30 minutes.
The activity of the enzyme is measured by the variation in optical density Δ OD per minute (Quash G. et al., Enzymology and molecular biology of carbonyl metabolism, Weiner et al. eds., Kluwer Academic/Plenum Publishers, New York, 97-106).
The percentage activity (A %) of the ALDH1 enzyme obtained at different preincubation times with the compound of Example 1 at 0° C. […] (represented by Δ) is measured as a function of the time t (expressed in minutes).

[4] = tested on: BAF3-b0 cells; experiment: Apoptosis induction (DNA fragmentation) in BAF3-b0 cells, 24 h; format: cell-based, mouse
Procedure: as §1
Hereinbelow, the cells known as BAF3-b0 correspond to BAF3 cells not transfected with the bcl2 gene.
as §2, §3, §4, §5, §6, §7, §8, §9

[5] = tested on: BAF3-bcl2 G18 cells; experiment: Apoptosis induction (DNA fragmentation) in BAF3-bcl2 clone G18, 24 h; format: cell-based, mouse
Procedure: as §1, §2, §3, §4, §5, §6, §7, §8, §9

[6] = tested on: bcl2 H16 cells; experiment: DNA fragmentation of bcl2 H16 cells, 6 h incubation; format: cell-based, mouse
Procedure: as §1, §3, §4, §5, §6, §7, §8, §9
The procedure for the test given in Table 4 below is identical to the previous procedure except that the incubation time is 6 hours instead of 24 hours: […]

[7] = tested on: MRC5 cells; experiment: Growth of MRC5 cells (protein and DNA assay); format: cell-based, human; details: 50% inhibition of growth
Procedure: as §10, §11, §12, §13

[8] = tested on: L1210T cells; experiment: Growth of L1210T cells (L1210 bearing human ALDH1 cDNA); format: cell-based, mouse; details: 50% inhibition of growth
Procedure: as §10
The procedure used for the tests on the L1210 cells is as follows: • 10^5 cells are incubated in the various wells of a microplate in 1 ml of culture medium. After incubating for 4 hours, the test compounds are added to the wells containing the L1210 cells.
For the L1210 cells, the growth is measured by counting the viable cells in the presence of 0.1% Trypan blue.
as §13

CSC(=O)C#CC(C)(C)N(C)C [Example 1, S-methyl 4-dimethyl-amino-4-methyl-2-pentynethioate]
DNA fragmentation (%) ([1]; B14, 1 μM): 0% | DNA fragmentation (%) ([1]; B14, 2 μM): 2.0% | DNA fragmentation (%) ([1]; B14, 4 μM): 44.1% | DNA fragmentation (%) ([1]; B14, 8 μM): 90.0% | IC50 [2]: 0.8 µM | Inhibition of the activity of the ALDH1 enzyme ([3]; pre-incubation at 0° C.): no effect of inhibition | Inhibition of the activity of the ALDH1 enzyme ([3]; pre-incubation at 37° C.): an effect of inhibition of the activity of the enzyme is observed | DNA fragmentation (%) ([4]; b0, 1 μM): 5.0% | DNA fragmentation (%) ([4]; b0, 2 μM): 10.6% | DNA fragmentation (%) ([4]; b0, 4 μM): 46.4% | DNA fragmentation (%) ([4]; b0, 8 μM): 71.1% | DNA fragmentation (%) ([5]; G18, 1 μM): 0.6% | DNA fragmentation (%) ([5]; G18, 2 μM): 7.3% | DNA fragmentation (%) ([5]; G18, 4 μM): 52.7% | DNA fragmentation (%) ([5]; G18, 8 μM): 84.3% | % fragmentation of the DNA of the bcl2 H16 cells ([6]; 50 μM): 2.15% | % fragmentation of the DNA of the bcl2 H16 cells ([6]; 100 μM): 0% | % fragmentation of the DNA of the bcl2 H16 cells ([6]; 200 μM): 30.4% | % fragmentation of the DNA of the bcl2 H16 cells ([6]; 400 μM): 83.8% | % fragmentation of the DNA of the bcl2 H16 cells ([6]; 600 μM): 81.5% | IC50 [7]: 8.4 µM | IC50 [8]: 1.6 µM

Source: patent US8026231B2, “Aminothiolester compounds, pharmaceutical and cosmetic compositions containing same and uses thereof” (CNRS, priority 2000, dated 2011)
